This note sets out measurements from US20240018124A1, “MODULATORS OF FPR1 AND METHODS OF USING THE SAME” (BIOFRONT LTD, priority 2021, published 2024).

In experiment [1] the target is T1, FPR1 (Homo sapiens (Human), UniProt P21462). Description: Reactive oxygen species (ROS) assay in human neutrophils stimulated with fMLP. The following applies: human neutrophils from whole blood; fMLP (500 nM); DCFH-DA fluorescence; read-out: Anti-ROS IC50. It is filed as cell-based. As for the experimental part: Reactive Oxygen Species (ROS) Assay
Human whole blood was collected, and ACK lysis buffer (ThermoFisher, A1049201) was added at 3 times the volume of the blood sample to lyse the red blood cells. The sample was incubated on ice for 15 minutes, and gently mixed twice during the incubation. 10 mL DPBS was then added, and the sample was centrifuged for 8 minutes. After removing the supernatant, remaining cells were resuspended in RPMI1640 medium containing 3% FBS and centrifuged again for 10 minutes. After removing the supernatant, cells were again resuspended in RPMI1640 medium containing 3% FBS. Neutrophil cell count was determined using FACS analysis by APC-labeled CD11b antibody (Biolegend, 101211) and FITC-labeled CD66b antibody (Biolegend, 305104). Neutrophils were then plated into 96-well plates (300,000/well). Plates were centrifuged and supernatant was removed. Cells were resuspended in 80 μL of compound solution (prepared in RPMI1640 medium containing 3% FBS), then incubated at room temperature for 15 minutes. 20 μL solution containing DCFH-DA (at the manufacturer's recommended concentration, Yeasen Biotechnology, 50101ES01) and fMLP (500 nM) was then added. Cells were incubated at 37° C. in 5% CO2 for 20 minutes away from light. After incubation, cells were placed on ice for 5 minutes, washed twice with 200 μL ice-cold DPBS, then resuspended in ice-cold DPBS at 100 µL/well. Fluorescence from each sample was measured at 485 nm excitation and 535 nm emission.
(§1) The effects of the compounds of the present disclosure on regulating the FPR1-mediated cell signaling were measured by monitoring the cellular cAMP level change and anti-reactive oxygen species formation in human neutrophils in the presence of an FPR1 agonist, respectively, as illustrated by the examples in Table 1.

Experiment [2] addresses T1, FPR1. Nature of the experiment: Cyclic adenosine monophosphate (cAMP) assay, CHO-K1 cells stably overexpressing hFPR1. The experiment is classed as cell-based. As to conditions: 2.5 μM Forskolin and 0.25 nM WKYMVm (FPR1 agonist). How it is done:
Cyclic Adenosine Monophosphate (cAMP) Assay
CHO-K1 cells stably overexpressing hFPR1 were plated into 384-well cell culture plates (2,000/well/5 μL) in 1× Stimulation Buffer (LANCE Ultra cAMP Kit, Perkin Elmer, TRF0263). 1 μL compound solution (prepared in ddH2O containing 0.2% DMSO) was added to each well. Plates were centrifuged briefly, and cells were incubated at 37° C. in 5% CO2 for 10 minutes. 4 μL solution containing 2.5 μM Forskolin and 0.25 nM WKYMVm (an FPR1 agonist, GLPBIO, GC15140) was then added to each well. 5 μL of Eu-cAMP solution (diluted to manufacturer's recommended working concentration in Detection Buffer, LANCE Ultra cAMP Kit) and 5 μL of ULight-anti-cAMP solution (diluted in Detection Buffer, LANCE Ultra cAMP Kit) were added to each well. Plates were centrifuged briefly, and cells were incubated at room temperature for 1 hour. Fluorescence emission at 665 nm and 620 nm from the samples was measured by a Perkin Elmer Envision instrument.
as §1

Broadly, the IC50 is the concentration at which inhibition is half-maximal.

Bounds are passed on as bounds.

T1 sequence (P21462 whole entry): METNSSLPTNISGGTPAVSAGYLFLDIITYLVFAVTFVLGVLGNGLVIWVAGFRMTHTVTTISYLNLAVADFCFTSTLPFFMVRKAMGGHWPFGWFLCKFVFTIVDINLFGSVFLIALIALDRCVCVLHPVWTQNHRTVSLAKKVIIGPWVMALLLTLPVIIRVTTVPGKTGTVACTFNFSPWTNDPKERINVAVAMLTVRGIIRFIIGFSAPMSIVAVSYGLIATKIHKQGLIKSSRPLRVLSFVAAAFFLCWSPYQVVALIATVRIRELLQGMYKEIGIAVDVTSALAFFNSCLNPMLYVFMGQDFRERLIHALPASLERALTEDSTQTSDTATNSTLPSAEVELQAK

`C[C@H](NC(=O)c1c(NS(=O)(=O)c2ccc(Cl)cc2)c(C2CCC3(CC2)OCCO3)nn1C)C(C)(C)C` [Compound 23, (S)-4-((4-chlorophenyl)sulfonamido)-N-(3,3-dimethylbutan-2-yl)-1-methyl-3-(1,4-dioxaspiro[4.5]decan-8-yl)-1H-pyrazole-5-carboxamide]: the IC50 in experiment [1] and in experiment [2] was 1000 to 25000 nM throughout.

For `C[C@H](NC(=O)c1c(NS(=O)(=O)c2ccc(Cl)cc2)c(C2=CCC3(CC2)OCCO3)nn1C)C(C)(C)C` [Compound 24, (S)-4-((4-chlorophenyl)sulfonamido)-N-(3,3-dimethylbutan-2-yl)-1-methyl-3-(1,4-dioxaspiro[4.5]dec-7-en-8-yl)-1H-pyrazole-5-carboxamide], the IC50 in experiment [1] and in experiment [2] was 1000 to 25000 nM throughout.

Regarding `C[C@H](NC(=O)c1c(NS(=O)(=O)c2ccc(C#N)cc2)c(C2CCOCC2)nn1C)C(C)(C)C` [Compound 25, (S)-4-((4-cyanophenyl)sulfonamido)-N-(3,3-dimethylbutan-2-yl)-1-methyl-3-(tetrahydro-2H-pyran-4-yl)-1H-pyrazole-5-carboxamide], the IC50 in experiment [1] and in experiment [2] was 100 to 1000 nM each time.

Take `C[C@H](NC(=O)c1c(NS(=O)(=O)c2ccc(C3CC3)cc2)c(-c2ccc(F)cc2)nn1C)C(C)(C)C` [Compound 26, (S)-4-((4-cyclopropylphenyl)sulfonamido)-N-(3,3-dimethylbutan-2-yl)-3-(4-fluorophenyl)-1-methyl-1H-pyrazole-5-carboxamide]: the IC50 was 100 to 1000 nM in experiment [1] and 1000 to 25000 nM in experiment [2].

In the case of `COc1ccc(S(=O)(=O)Nc2c(-c3ccc(F)cc3)nn(C)c2C(=O)N[C@@H](C)C(C)(C)C)cc1` [Compound 27, (S)—N-(3,3-dimethylbutan-2-yl)-3-(4-fluorophenyl)-4-((4-methoxyphenyl)sulfonamido)-1-methyl-1H-pyrazole-5-carboxamide], the IC50 in experiment [1] and in experiment [2] was 100 to 1000 nM in each case.

With `C[C@H](NC(=O)c1c(NS(=O)(=O)c2ccc(C#N)cc2F)c(-c2ccc(F)cc2)nn1C)C(C)(C)C` [Compound 28, (S)-4-((4-cyano-2-fluorophenyl)sulfonamido)-N-(3,3-dimethylbutan-2-yl)-3-(4-fluorophenyl)-1-methyl-1H-pyrazole-5-carboxamide], the IC50 in experiment [1] and in experiment [2] was 100 to 1000 nM throughout.

For `COCc1ccccc1-c1nn(C)c(C(=O)N[C@@H](C)C(C)(C)C)c1NS(=O)(=O)c1ccc(C)cc1` [Compound 33, (S)—N-(3,3-dimethylbutan-2-yl)-3-(2-(methoxymethyl)phenyl)-1-methyl-4-((4-methylphenyl)sulfonamido)-1H-pyrazole-5-carboxamide], the IC50 in experiment [1] and in experiment [2] was 100 to 1000 nM in each case.

As for `C[C@H](NC(=O)c1c(NS(=O)(=O)c2ccc(Cl)cc2)c(C2CCC(F)(F)CC2)nn1C)C(C)(C)C` [Compound 37, (S)-4-((4-chlorophenyl)sulfonamido)-3-(4,4-difluorocyclohexyl)-N-(3,3-dimethylbutan-2-yl)-1-methyl-1H-pyrazole-5-carboxamide], the IC50 in experiment [1] and in experiment [2] was 100 to 1000 nM in each case.

For `C[C@H](NC(=O)c1c(NS(=O)(=O)c2ccc(Cl)cc2)c(-c2ccc(F)cc2)nn1C)C(C)(C)C` [Compound 38, (S)-4-((4-chlorophenyl)sulfonamido)-N-(3,3-dimethylbutan-2-yl)-3-(4-fluorophenyl)-1-methyl-1H-pyrazole-5-carboxamide], the IC50 in experiment [1] and in experiment [2] was 100 to 1000 nM each time.

Regarding `C[C@H](NC(=O)c1c(NS(=O)(=O)c2ccc(Cl)cc2)c(-c2ccccc2C(F)F)nn1C)C(C)(C)C` [Compound 39, (S)-4-((4-chlorophenyl)sulfonamido)-3-(2-(difluoromethyl)phenyl)-N-(3,3-dimethylbutan-2-yl)-1-methyl-1H-pyrazole-5-carboxamide], the IC50 in experiment [1] and in experiment [2] was 100 to 1000 nM throughout.

As to `C[C@H](NC(=O)c1c(NS(=O)(=O)c2ccc(C#N)cc2)c(-c2ccc(F)cc2F)nn1C)C(C)(C)C` [Compound 41, (S)-4-((4-cyanophenyl)sulfonamido)-3-(2,4-difluorophenyl)-N-(3,3-dimethylbutan-2-yl)-1-methyl-1H-pyrazole-5-carboxamide], the IC50 in experiment [1] and in experiment [2] was 100 to 1000 nM each time.

Regarding `COCc1ncccc1-c1nn(C)c(C(=O)N[C@@H](C)C(C)(C)C)c1NS(=O)(=O)c1ccc(C#N)cc1` [Compound 42, (S)-4-((4-cyanophenyl)sulfonamido)-N-(3,3-dimethylbutan-2-yl)-3-(2-(methoxymethyl)pyridin-3-yl)-1-methyl-1H-pyrazole-5-carboxamide], the IC50 in experiment [1] and in experiment [2] was greater than 25000 nM throughout.

For `C[C@H](NC(=O)c1c(NS(=O)(=O)c2ccc(C#N)cc2)c(C2=CCC(F)(F)CC2)nn1C)C(C)(C)C` [Compound 43, (S)-4-((4-cyanophenyl)sulfonamido)-3-(4,4-difluorocyclohex-1-en-1-yl)-N-(3,3-dimethylbutan-2-yl)-1-methyl-1H-pyrazole-5-carboxamide], the results for the 50% inhibitory concentration (IC50) in experiment [1] and in experiment [2] were 100 to 1000 nM and 1000 to 25000 nM, respectively.

On to `C[C@H](NC(=O)c1c(NS(=O)(=O)c2ccc(C#N)cc2)c(C2CCC(F)(F)CC2)nn1C)C(C)(C)C` [Compound 44, (S)-4-((4-cyanophenyl)sulfonamido)-3-(4,4-difluorocyclohexyl)-N-(3,3-dimethylbutan-2-yl)-1-methyl-1H-pyrazole-5-carboxamide], for which the IC50 in experiment [1] and in experiment [2] was 100 to 1000 nM in each case.
